Test results from patent publication US20230271950A1, “ANTIBACTERIAL PICOLINAMIDE COMPOUNDS” (University of Notre Dame Du Lac, priority 2020, published 2023).

Columns and labels:
C. difficile ATCC43255 [1] = assay: Scanning-electron microscopy of C. difficile vegetative cells; type: cell-based, Clostridioides difficile; settings: compound 1 at 4× to 32×MIC; VAN at 4×MIC
Method: (§1) FIG. 2. Mechanism of action of compound 1. (A) Macromolecular biosynthesis assays: Compound 1 was incubated with C. difficile ATCC43255 at 0.5×MIC. […] The incubation time was 60 min for DNA, 120 min for peptidoglycan synthesis and RNA, and 180 min for protein synthesis. (B-G) Imaging of C. difficile […] vegetative cells (logarithmic growth) by scanning electron microscopy.
Scanning-electron microscopy. […] Following incubation, the cells were washed with PBS (3×) and applied onto poly-1-lysine (Santa Cruz Biotechnology, Dallas, Tex.) coated microglass coverslips (Electron Microscopy Sciences, Hatfield, Pa.) and incubated for 15 min. The cells were fixed for 1 h with 2% glutaraldehyde, followed by a wash (3×) with sodium cacodylate buffer at pH 7.4. The samples were fixed with 1% osmium tetroxide for 1 h and rinsed (3×) in the buffer. The samples were then put through a graded ethanol series for dehydration, followed by critical point drying. The samples were then mounted on SEM stubs and sputter-coated with iridium. Microscopy and imaging were performed on a Magellan 400 XHR instrument (FEI, Hillsboro, Oreg.).

C. difficile ATCC43255 [2] = assay: Macromolecular synthesis assay (radioactive precursor incorporation); type: cell-based, Clostridioides difficile; settings: 0.5×MIC
Method: as §1
The mechanism of action of 1 was investigated using macromolecular synthesis assays. These assays measure the incorporation of radioactive precursors ([2,8-^3H]-adenine, [5,6-^3H]-uridine, 1-[3,4,5-^3H(N)]-leucine, and N-acetyl-d-[6-^3H]glucosamine) respectively into DNA, RNA, protein, and peptidoglycan. […] This analysis visualizes the cell wall as the outermost layer of the cell envelope of Gram-positive bacteria such as C. difficile.
Macromolecular synthesis assay. The macromolecular synthesis assay was performed by established methods. […] The radiolabeled precursors were purchased from Perkin Elmer (Waltham, Mass., USA).

C. difficile = assay: Minimum bactericidal concentration (MBC); type: cell-based, Clostridioides difficile
[3] = system: stationary-phase C. difficile; assay: Time-kill assay, stationary-phase C. difficile; type: cell-based, Clostridioides difficile; settings: 8×, 16×, and 32×MIC
Method: Time-kill assay. […] A control tube without antibiotic was also included. At intervals of 4, 8, and 24 h, 100-μL aliquots of the cultures were plated onto pre-reduced brain heart infusion broth agar media for colony counts. […] The experiment was done in triplicate.

ESKAPE panel = assay: MIC against the ESKAPE panel; type: cell-based; settings: E. faecium, S. aureus, K. pneumoniae, A. baumannii, P. aeruginosa, Enterobacter species
Method: Minimum-inhibitory Concentration Determination. MICs for C. difficile strains and other gut bacteria were determined with the broth microdilution method as previously described (J. Antimicrob. Chemother. 2013, 68, 515). ESKAPE panel and MRSA MICs were determined as described in the Clinical & Laboratory Standards Institute guidelines.

C. difficile ATCC 43255 = assay: Mouse model of recurrent C. difficile infection; type: in vivo, mice; settings: VAN 50 mg/kg oral once a day for 5 days; days 10-15
Method: Next, compound 1 was evaluated in a mouse model of recurrent CDI.
Animals. Female C57BL/6 mice weighing 18-20 g and 6-8 weeks of age were used for the efficacy study (Jackson, Bar Harbor, Me.). Female CD-1 mice (24-31 g and 7-8 weeks of age) were used for the PK study. They were housed in groups of five mice in sterile polycarbonate shoeboxes with bedding consisting of ¼-inch corncob (The Andersons Ind., Maumee, Ohio) and Alpha-Dri (Shepherd Specialty Papers, Inc., Richland, Mich.). Mice were maintained on a 12-h light/dark cycle at 72° F. and were given Teklad 2918 irradiated extruded rodent diet and water ad libitum. All procedures were performed in accordance with and approved by the University of Notre Dame Institutional Animal Care and Use Committee.
C. difficile infection model. The recurrent C. difficile infection model reported by Chen et al. was used (Gastroenterology 2008, 135, 1984). […] Subsequently, mice were given a 10 mg/kg intraperitoneal injection of clindamycin. The following day, the mice were infected intragastrically with 10^4 CFU of C. difficile ATCC 43255. […] Body weights and survival were recorded for 25 days. The study was repeated a second time.

## O=C(O)c1ccc2oc(NC(=O)c3cc(Oc4cccc(OC(F)(F)F)c4)ccn3)nc2c1 [Compound 1, Sodium 2-(4-(3-(trifluoromethoxy)phenoxy)picolinamido)benzo[d]oxazole-5-carboxylate]
C. difficile ATCC43255 [1]
  cell surface by scanning-electron microscopy: bleb formation on the surface was evident
C. difficile ATCC43255 [2]
  inhibition of DNA, RNA, and protein synthesis: Minimal levels of inhibition
C. difficile ATCC43255 [2]; N-acetyl-d-[6-^3H]glucosamine incorporation, 120 min
  inhibition of cell-wall peptidoglycan biosynthesis: 55±4%
C. difficile; C. difficile
  MBC higher than MIC: 64 fold
C. difficile; Clostridioides difficile, C. difficile
  MBC: 4 µg/mL
C. difficile; from MBC versus MIC
  bacteriostatic or bactericidal (by definition): bacteriostatic
[3]
  reduction of C. difficile stationary-phase growth: 2 log10

## O=C(Nc1ncco1)c1ccnc(-c2ccc(Cl)c(Cl)c2)c1 [Compound 4, 2-(3,4-Dichlorophenyl)-N-(oxazol-2-yl)isonicotinamide]
ESKAPE panel
  activity against the ESKAPE panel: active only against the Gram-positive members of the panel

## CN[C@H](CC(C)C)C(=O)N[C@H]1C(=O)N[C@@H](CC(N)=O)C(=O)N[C@H]2C(=O)N[C@H]3C(=O)N[C@H](C(=O)N[C@H](C(=O)O)c4cc(O)cc(O)c4-c4cc3ccc4O)[C@H](O)c3ccc(c(Cl)c3)Oc3cc2cc(c3O[C@@H]2O[C@H](CO)[C@@H](O)[C@H](O)[C@H]2O[C@H]2C[C@](C)(N)[C@H](O)[C@H](C)O2)Oc2ccc(cc2Cl)[C@H]1O [VAN, vancomycin, reference compound]
C. difficile ATCC43255 [1]
  cell surface by scanning-electron microscopy: altered
[3]
  reduction of C. difficile stationary-phase growth: 1 log10
C. difficile ATCC 43255
  recurrence of infection (loss of body weight): recurrence of infection is observed
